US11786494B2, “Methods of modulation of branched chain acids and uses thereof” (Baylor College of Medicine, priority 2009, dated 2023)
“Also recorded” adds a separate entry of the source.

What was measured:
[1] = system: phosphorylated E1-α subunit of BCKDC; test: Western blot of liver extract for phosphorylated E1 subunit of BCKDC; assay type: in vivo, C57B6 mice; conditions: 50 mg/kg/day oral gavage in 3 administrations, 3 days, N=5 per group, p<0.05
Method: FIG. 5 is a Western blot analysis of liver extract using an antibody against the phosphorylated form of the E1 subunit of BCKDC from C57B6 mice (N=5 mice per group) treated with phenylbutyrate or placebo. To investigate the effect and mechanism of phenylbutyrate on the BCKD, mice (n=5) were treated with saline or 50 mg/kg/day of phenylbutyrate divided into three administrations for three consecutive days and after three days of treatment they were sacrificed for analyses. Proteins were extracted from mouse livers and a western blot performed using an anti-phosphoserine BCKDC antibody, the anti-BCKDC-E1 antibody, and the anti-BCKDC-E2 antibody. Each lane corresponds to the liver extract from an independent mouse (from #1 to #3).
A post-translational mechanism of regulation of the activity of BCKDC by covalent modification by phosphorylation. In order to investigate the effect and mechanism of phenylbutyrate-mediated increased activity of BCKDC, Buphenyl® or saline were given orally to C57B6 mice (N=5 mice per group) by gavage at the dose of 50 mg/kg/day divided into 3 administrations for 3 consecutive days. After three days of treatment the animals were sacrificed to harvest the liver samples. Proteins were extracted from mouse livers by homogenizing the tissue in a buffer containing 5% SDS and 0.0625 M TrisHCl. […]

[2] = system: BCKDC subunit and BDK transcripts; test: BCKDC transcript levels by quantitative RT-PCR in liver and muscle; assay type: in vivo, C57B6 mice
Method: The mice (n=5) were treated with saline or 50 mg/kg/day of phenylbutyrate divided into three administrations for three consecutive days and after three days of treatment they were sacrificed for analyses.
Since PBA is a known histone deacetylase (HDAC) inhibitor, transcript levels of BCKDC were measured following treatment with PBA using quantitative RT-PCR. Five wild type mice were treated with either placebo or PBA. Following treatment the liver and muscle cells were harvested. RNA was isolated and subject to real time RT-PCR to assess the transcript levels of all the subunits of the BCKDC and regulatory kinase.

phosphorylated E1 = target: T1, phosphorylated E1 (Homo sapiens, UniProt P12694+P21953); test: E1 decarboxylase activity measured after inactivation by BDK; assay type: biochemical
T1 sequence (P12694 46-445): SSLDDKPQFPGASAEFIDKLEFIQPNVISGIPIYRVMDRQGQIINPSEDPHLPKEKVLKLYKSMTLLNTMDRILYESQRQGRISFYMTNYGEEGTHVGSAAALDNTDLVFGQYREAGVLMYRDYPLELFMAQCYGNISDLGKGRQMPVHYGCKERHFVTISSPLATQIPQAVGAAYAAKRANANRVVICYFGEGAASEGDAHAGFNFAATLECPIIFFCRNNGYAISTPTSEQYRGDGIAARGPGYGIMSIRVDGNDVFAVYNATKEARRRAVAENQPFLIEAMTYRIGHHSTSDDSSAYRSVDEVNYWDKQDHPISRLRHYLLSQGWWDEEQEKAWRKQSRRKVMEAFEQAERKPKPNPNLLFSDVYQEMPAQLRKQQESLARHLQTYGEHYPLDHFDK
T1 sequence (P21953 51-392): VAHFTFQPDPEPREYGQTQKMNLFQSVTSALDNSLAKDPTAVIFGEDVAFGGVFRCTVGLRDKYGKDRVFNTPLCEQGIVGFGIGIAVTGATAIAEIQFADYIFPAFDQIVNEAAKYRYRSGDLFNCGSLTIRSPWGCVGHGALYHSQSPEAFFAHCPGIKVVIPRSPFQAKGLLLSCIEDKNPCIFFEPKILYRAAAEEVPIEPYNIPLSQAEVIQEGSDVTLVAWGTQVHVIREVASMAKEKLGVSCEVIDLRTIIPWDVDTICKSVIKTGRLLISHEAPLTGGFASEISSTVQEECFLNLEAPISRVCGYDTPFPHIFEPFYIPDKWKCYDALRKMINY
Method: (§1) To determine the effect of phenylbutyrate on individual BCAA catabolic enzymes, activities of mitochondrial branched chain amino transferase (BCATm) and BCKDC enzymes were measured with and without phenylbutyrate using purified recombinant enzymes. BCATm generates the BCKA products that are elevated in MSUD and are the substrates for BCKDC. BCATm activity was measured at pH 8.0 and 298 K as described in Example 2. Kinetics of the E1 decarboxylase reaction with and without phenylbutyrate were determined in the presence of an artificial electron acceptor 2, 6-dichlorophenolindophenol (DCPIP). The assay mixture contained 100 mM potassium phosphate, pH 7.5, 2.0 mM MgCl2, 0.2 mM thiamin diphosphate (ThDP) and 0.1 mM DCPIP. The rate of decarboxylation at 30° C. was measured by monitoring the reduction of the dye at 600 nm (24, 25). For the overall BCKDC activity assay, the enzymes were exchanged into phosphate buffer (30 mM potassium phosphate, pH 7.5) containing 5 mM DTT using a PD-10 column and the enzyme concentrations were calculated from the absorption maxima at 280 nm. […] The overall reaction was monitored by formation of NADH at 340 nm. The apparent rate constants (kapp) at different substrate concentrations for all of the above assays were determined from the absorption changes at the individual wavelength maximum. […]

[3] = system: E1α-phospho/E1α, E2, BCATm, BCATc; test: Western blotting of BCKD complex and BCAT isozymes in lymphoblast cells; assay type: cell-based, human
[4] = target: T2, E1 (unphosphorylated) of BCKDC (Homo sapiens, UniProt P12694+P21953); test: E1 catalyzed decarboxylase activity (DCPIP assay); assay type: biochemical
T2 sequence (P12694 46-445): T1 sequence (P12694 46-445)
T2 sequence (P21953 51-392): T1 sequence (P21953 51-392)
Method: as §1

- effect on phosphorylated E1 (inactive enzyme) (phosphorylated E1): did not have an effect
- kcat, KMV (phosphorylated E1; E1 phosphorylated first with BDK (0.1 μg) and ATP (0.4 mM), [+] Phenylbutyrate): 0.01 ± 0.0017 s⁻¹
- kcat, KMV ([4]; E1 catalyzed decarboxylase activity, [+] Phenylbutyrate): 0.3 ± 0.0167 s⁻¹
- unphosphorylated E1 (fully active enzyme) catalyzed decarboxylation of all three BCKA ([4]; increased kcat, lowered Km): enhanced
SMILES: O=C([O-])CCCc1ccccc1.[Na+] [phenylbutyrate, sodium 4-phenylbutyrate]
- phosphorylated E1-α subunit of BCKDC in liver vs saline treated mice [1]: significant reduction; also recorded: significantly reduced
- transcript levels of any of the subunits of the BCKDC or of BDK, placebo vs treated ([2]; liver and muscle, 50 mg/kg/day for 3 days (FIG. 6), listed as PBA, 50 mg/kg/day): No significant changes
- transcript levels of E1A, E1B, E2 ([2]; liver, p<0.006): significantly reduced
- levels of cytosolic isozyme BCATc ([3]; all of the lymphoblasts but patient 5, 1 mM 48 h): appeared to increase
- levels of the mitochondrial isozyme BCATm ([3]; both controls and patients 1 through 3, 1 mM 48 h): slightly elevated
- phosphorylation state of E1α ([3]; lymphoblasts from controls and patients 1, 2 and 3, 1 mM phenylbutyrate 48 h): Neither the controls nor patients 1, 2 and 3 responded
- phosphorylation state of E1α ([3]; lymphoblasts from patients 4 and 5, 1 mM phenylbutyrate 48 h, no apparent change in E1 levels): decrease
